From ChEMBL document CHEMBL4414648, “Novel Benzohydroxamate-Based Potent and Selective Histone Deacetylase 6 (HDAC6) Inhibitors Bearing a Pentaheterocyclic Scaffold: Design, Synthesis, and Biological Evaluation” (J Med Chem, 2019)
pIC50: −log10 of the molar value.

Tests used:
Cytochrome P450 3A4 = Cytochrome P450 3A4 (Homo sapiens, UniProt P08684)
Description: Inhibition of CYP3A4 in human liver microsomes using testosterone as substrate

[1] = Selectivity ratio of IC50 for C-terminal His-tagged human HDAC8 expressed in baculovirus infected sf9 insect cells to IC50 for human N-terminal GST-tagged HDAC6 expressed in baculovirus infected sf9 insect cells
[2] = Selectivity ratio of IC50 for C-terminal His-tagged human HDAC9 (604 to 1066 residues) expressed in baculovirus infected sf9 insect cells to IC50 for human N-terminal GST-tagged HDAC6 expressed in baculovirus infected sf9 insect cells
[3] = target: T1, Protein deacetylase HDAC6 (Mus musculus) (UniProt Q9Z2V5); assay: Inhibition of HDAC6 in C57BL/6 mouse regulatory T cells assessed as increase in Treg-mediated suppression of anti-CD3 induced CD4+ cell division at 1 uM after 72 hrs in presence mitomycin-treated APC by CFSE dye based flow cytometric assay relative to control
T1 sequence (whole entry): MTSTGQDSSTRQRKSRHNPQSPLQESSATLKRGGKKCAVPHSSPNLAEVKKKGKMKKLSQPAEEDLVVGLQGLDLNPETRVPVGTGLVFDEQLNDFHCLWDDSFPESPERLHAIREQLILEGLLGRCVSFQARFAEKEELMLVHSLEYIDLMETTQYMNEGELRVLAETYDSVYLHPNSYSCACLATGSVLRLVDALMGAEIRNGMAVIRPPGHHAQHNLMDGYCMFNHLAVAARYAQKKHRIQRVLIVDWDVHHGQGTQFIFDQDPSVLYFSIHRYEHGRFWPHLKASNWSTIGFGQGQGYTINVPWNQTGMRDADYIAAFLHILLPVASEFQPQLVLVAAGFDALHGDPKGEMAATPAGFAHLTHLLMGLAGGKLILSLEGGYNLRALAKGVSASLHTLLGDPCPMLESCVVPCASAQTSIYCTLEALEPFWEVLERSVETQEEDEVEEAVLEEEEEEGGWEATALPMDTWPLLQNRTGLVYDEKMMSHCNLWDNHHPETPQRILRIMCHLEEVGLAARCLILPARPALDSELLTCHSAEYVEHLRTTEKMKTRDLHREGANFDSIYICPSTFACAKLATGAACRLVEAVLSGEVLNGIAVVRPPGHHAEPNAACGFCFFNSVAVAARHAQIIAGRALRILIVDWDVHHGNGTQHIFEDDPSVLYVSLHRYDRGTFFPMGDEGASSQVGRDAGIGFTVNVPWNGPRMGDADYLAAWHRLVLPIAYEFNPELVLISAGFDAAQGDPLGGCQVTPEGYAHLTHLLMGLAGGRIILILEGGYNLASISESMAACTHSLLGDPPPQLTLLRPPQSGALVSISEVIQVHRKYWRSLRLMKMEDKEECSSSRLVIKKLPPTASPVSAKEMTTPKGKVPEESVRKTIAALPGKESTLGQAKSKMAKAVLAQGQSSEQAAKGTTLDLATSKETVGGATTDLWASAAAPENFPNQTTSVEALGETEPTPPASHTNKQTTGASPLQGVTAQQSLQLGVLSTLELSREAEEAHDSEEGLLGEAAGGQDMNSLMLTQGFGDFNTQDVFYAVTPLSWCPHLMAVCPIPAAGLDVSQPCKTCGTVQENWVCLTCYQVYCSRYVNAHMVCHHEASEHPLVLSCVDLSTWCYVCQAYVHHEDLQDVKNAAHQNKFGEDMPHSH

[4] = Stability in rat plasma assessed as parent compound remaining at 100 uM after 4 hrs by LC-MS/MS analysis; type: ADME, cell-free; conditions: read-out: Stability
PBMC = assay: Cytotoxicity against human PBMC cells after 72 hrs by CellTiter 96 aqueous one solution assay; type: cell-based

Sequence of Cytochrome P450 3A4 (P08684 whole entry): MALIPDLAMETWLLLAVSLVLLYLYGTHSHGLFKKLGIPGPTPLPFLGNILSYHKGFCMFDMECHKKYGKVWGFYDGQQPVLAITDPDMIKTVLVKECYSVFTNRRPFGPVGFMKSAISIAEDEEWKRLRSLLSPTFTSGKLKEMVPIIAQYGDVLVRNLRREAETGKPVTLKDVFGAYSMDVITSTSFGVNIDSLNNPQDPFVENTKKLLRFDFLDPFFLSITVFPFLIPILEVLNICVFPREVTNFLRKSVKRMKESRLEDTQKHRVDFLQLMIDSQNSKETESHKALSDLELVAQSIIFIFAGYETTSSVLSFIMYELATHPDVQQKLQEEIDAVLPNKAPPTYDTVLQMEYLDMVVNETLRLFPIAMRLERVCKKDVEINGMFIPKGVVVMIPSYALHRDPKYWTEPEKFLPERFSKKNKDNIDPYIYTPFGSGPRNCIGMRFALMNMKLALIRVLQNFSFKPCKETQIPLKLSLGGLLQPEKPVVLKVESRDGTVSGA

Q: With Cn1c(Sc2ccc(C(=O)NO)cc2)nnc1-c1cccs1 as the compound, how does the pIC50 (Cytochrome P450 3A4) read?
A: 4.58

Q: And the “Ratio IC50” value [1]?
A: 62

Q: And the “Ratio IC50” value [2]?
A: 132

Q: And the fold change (FC) [3]?
A: 3.4

Q: What about the remaining at 4 h, 100 µM [4] of the same compound?
A: 86%

Q: And the pIC50 (PBMC)?
A: < 6.00
